Drawing on ChEMBL document CHEMBL1150500, “Epoxidation of 6,7- and 10,11-oxidosqualenes by the squalene epoxidase present in rat liver microsomes” (Bioorg Med Chem Lett, 1993), this text covers IC50 for four compounds.

Structures are written as SMILES.

For the experiment, the target named is Squalene monooxygenase (Rattus norvegicus, UniProt P52020). Kind of experiment: Compound was tested for its inhibitory activity against squalene epoxidase from rat liver microsomes.
Chain of Squalene monooxygenase (P52020 whole entry): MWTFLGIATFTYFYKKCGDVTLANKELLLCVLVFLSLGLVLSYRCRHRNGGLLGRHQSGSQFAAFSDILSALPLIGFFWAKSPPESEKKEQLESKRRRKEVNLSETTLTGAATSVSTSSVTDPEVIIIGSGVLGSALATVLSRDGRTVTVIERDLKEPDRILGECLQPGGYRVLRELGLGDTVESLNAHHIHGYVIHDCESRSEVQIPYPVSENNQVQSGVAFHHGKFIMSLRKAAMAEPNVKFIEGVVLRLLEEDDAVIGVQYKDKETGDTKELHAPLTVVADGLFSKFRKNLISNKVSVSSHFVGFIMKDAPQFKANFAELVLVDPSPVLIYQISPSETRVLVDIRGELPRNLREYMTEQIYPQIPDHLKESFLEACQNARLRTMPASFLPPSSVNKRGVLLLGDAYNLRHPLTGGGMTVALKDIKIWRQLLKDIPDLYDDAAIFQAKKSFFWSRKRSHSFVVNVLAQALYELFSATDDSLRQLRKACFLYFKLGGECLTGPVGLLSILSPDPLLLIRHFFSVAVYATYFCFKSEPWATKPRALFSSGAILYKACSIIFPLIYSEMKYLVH
As to `CC(C)=CCC/C(C)=C/CC/C(C)=C/CCC1OC1(C)CC/C=C(\C)CC[C@@H]1OC1(C)C` (some centres undefined), the IC50 was determined as 13 µM. The compound `CC(C)=CCC/C(C)=C/CC/C(C)=C/CC/C=C(\C)CCC1OC1(C)CCC=C(C)C` (centres undefined) registered an IC50 of 31.8 µM. The compound `CC(C)=CCC/C(C)=C/CC/C(C)=C/CCC1OC1(C)CC/C=C(\C)CCC=C(C)C` (centres undefined) yielded an IC50 of 50.9 µM.

In turn, `CC(C)=CCCC1(C)OC1CC/C(C)=C/CC/C=C(\C)CC/C=C(\C)CC[C@@H]1OC1(C)C` (some centres undefined) registered a 50% inhibitory concentration (IC50) of 0.11 µM.
